Article PMC3997483, “Aminostyrylbenzofuran Directly Reduces Oligomeric Amyloid-β and Reverses Cognitive Deficits in Alzheimer Transgenic Mice” (PLoS ONE, 2014)
Like-named read-outs stand apart in the source and are kept apart here.

How the values were obtained:
[1] = Pharmacokinetics IV/PO in mice; type: in vivo, ICR mice; details: for AUC(0-t): read-out: AUC0–24h
Experimental: Pharmacokinetics profile of KMS88009 was obtained using ICR mice, SD rats, beagle dogs and cynomolgus monkeys. Animals were fasted overnight before KMS88009 administration. Mice were divided into 2 groups to receive KMS88009 as a single dose of 2.1 mg/kg intravenous (IV) bolus or 10 mg/kg orally (PO) by gavage. Additionally, KMS88009 was administered orally to estimate the BBB penetration in mice (10, 30 and 100 mg/kg). […] Dog received KMS88009 either as an IV bolus (1 mg/kg) via the great saphenous vein or by oral gavage (4 mg/kg). KMS88009 was administrated to monkeys as an IV bolus (1 mg/kg) via the femoral vein or by oral gavage (4 mg/kg). Vehicle for IV and PO administration was DMSO/tween-20/saline (3.3∶19.8∶[…]). […]. Brain samples were weighed and Daunce-homogenized in 10-fold volume of ice-chilled 4% bovine serum albumin (BSA) solution at room temperature. Plasma and brain homogenates were kept frozen at −70°C until analysis. The levels of KMS88009 were determined by the LC-MS/MS analysis. Pharmacokinetic parameters, time to the maximum concentration (Tmax), maximum concentration (Cmax), elimination half-life (T1/2), volume of distribution (Vd), clearance (Cl) and mean residual time (MRT), of KMS88009 were calculated based on plasma concentration-time data by a non-compartmental method using WinNonlin Version 5.2 (Pharsight, USA). Area under the curve from 0 to 24 hr (AUC0-24h) and area under the curve from 0 to infinity (AUCINF) were obtained by linear and log linear trapezoidal summations.

[2] = Dissociation constant (pKa), GLpKa titration; type: physicochemical; details: aqueous 150 mM NaCl solution
Experimental: (§1) Dissociation constant (pKa) and partition coefficient (log P) Dissociation constant (pKa) and partition coefficient (log P) of KMS88009 were measured by a pH-method using GLpKa (Sirius, UK). pKa was measured by titrating KMS88009 solution and calculated from the shape of the titration curve. […] Log P of KMS88009 was calculated by a two-phase acid-base titration in a mixture of water and octanol. Three separate potentiometric titrations of KMS88009 were carried out at 23 ℃ in various octanol-water (0.15 M KCl) mixtures (0.5% to 50% octanol). The initial pH was adjusted to 10.0 with standardized 0.5 M NaOH prior to each titration. Titrations were performed with standardized 0.5 M HCl to pH 1.8. The pKa and log P values were calculated using RefinementPro software (Sirius, UK). Values are expressed as the mean ± SD of 3 independent experiments.

[3] = Partition coefficient (log P), octanol-water titration; type: physicochemical; details: 23 ℃
Experimental: as §1

[4] = ICR, plasma, mouse IV 2.1 mg/kg
[5] = ICR, mouse IV 2.1 mg/kg, plasma

COc1ccc2cc(C=Cc3ccc(N(C)C)cc3)oc2c1 [KMS88009, 6-methoxy-2-(4-dimethylaminostyryl) benzofuran]
MRT last [1, 4]: 2.9 h | Vd [1, 4]: 32.1 L/kg | clearance [1, 4]: 63.3 mL/min/kg | half-life [1, 4]: 5.9 h | MRT last ([1]; ICR, plasma, mouse PO 10 mg/kg): 5.5 h | Tmax ([1]; ICR, plasma, mouse PO 10 mg/kg): 1 h | half-life ([1]; ICR, plasma, mouse PO 10 mg/kg): 4.6 h | AUC(0-inf) [1, 5]: 1330 ng·h/mL | AUC(0-t) [1, 5]: 1300 ng·h/mL | AUC(0-inf) ([1]; ICR, mouse PO 10 mg/kg, plasma): 6310 ng·h/mL | Cmax ([1]; ICR, mouse PO 10 mg/kg, plasma): 1060 ng/mL | AUC(0-t) ([1]; ICR, mouse PO 10 mg/kg, plasma): 6160 ng·h/mL | BA ([1]; mouse PO 10 mg/kg vs IV […]): 99.6% | pKa [2]: 1.5 ± 0.12 | logP [3]: 2.4 ± 0.19
